Columns and labels:
[1] = technetium complex; cited from earlier work
[2] = technetium complex, monkey; cited from earlier work
[3] = Biodistribution of 99mTc labelled complexes in rats (Tc brain bioassay, Example 64, Table I); format: in vivo, Female Sprague-Dawley rats; conditions: rat, i.v. tail vein
Description: Distribution of the ^99m Tc labelled compounds was evaluated in rats. Female Sprague-Dawley rats weighing 140 to 220 g (average 170 g) were anaesthetised with sodium pentobarbital and were injected in a tail vein with 0.05 to 10mCi of the ^99m Tc labelled complex in a volume of 0.2 to 0.5 ml. At least two rats were injected for each time point.
The animals were sacrificed at 5 and 30 minutes post injection and selected organs were removed; the tails were discarded to avoid interference from the injection site. The radioactivity in each organ was measured at a standard geometry with a […] sodium iodide scintillation counter adjusted for the 140 KeV emission of ^99m Tc. The organs were also weighed to one hundredth of a gram and the activity was calculated as a percent of administered dose per gram. The important determinations are the amount of activity in the brain and the brain:blood ratio.

[4] = Electrophoresis of 99mTc complexes (charge); format: physicochemical
Source text: After labelling, and if required, the resultant ^99m Tc chelate complexes can be purified by passing through a C-18 Sep Pak column.

[5] = 0.1M NaH2PO4, pH 6.8, 250 volts, 25 min
[6] = 0.1M NaH2PO4, pH 6.8, 200 volts, 30 min
[7] = 0.05M NaH2PO4, pH 4.5, 300 volts, 30 min

Row | SMILES | Brain % dose ([3]; 5 min post injection) | Brain:blood ([3]; 5 min post injection) | Heart % dose ([3]; 5 min post injection) | Heart:blood ([3]; 5 min post injection) | Brain % dose ([3]; 30 min post injection) | Brain:blood ([3]; 30 min post injection) | Heart % dose ([3]; 30 min post injection) | Heart:blood ([3]; 30 min post injection) | other results
1 | CC(C)(S)CNCCNCC(C)(C)S [BAT] |  |  |  |  |  |  |  |  | brain uptake / crossing of blood-brain barrier [1]: can cross the blood-brain barrier (BBB); retention of brain activity [1]: fails to show retention
2 | CCOC(=O)[C@H](CS)NCCN[C@@H](CS)C(=O)OCC [ECD] |  |  |  |  |  |  |  |  | brain retention [2]: retention; brain uptake [2]: good
3 | C[SH]1C(C)(C)C(=O)[N]2CC[N]3c4ccccc4[S][Tc]231=[O] (stereo not shown) [Example T711] | 2.33 % dose | 4.24 | 0.88 % dose | 3.38 | 0.47 % dose | 1.54 | 0.23 % dose | 1.51 | Electrophoresis (charge) [4, 5]: neutral
4 | C[SH]1c2ccccc2[N]2CC[N]3C(=O)C(C)(C)[S][Tc]321=[O] (stereo not shown) [Example T712, ^99m Tc complex of N[2-(((methyl-2-mercapto)propionyl)amino)ethyl]-2-methylthio aniline] | 1.69 % dose | 1.04 | 0.61 % dose | 1.07 | 1.73 % dose | 1.13 | 0.53 % dose | 0.74 | Electrophoresis (charge) ([4]; 0.05M NaH2PO4, pH 4.5, 3000 volts, 30 min): neutral
5 | CCC[SH]1C(C)(C)C(=O)[N]2CC[N]3c4ccccc4[S][Tc]231=[O] (stereo not shown) [Example T713, ^99m Tc complex of N[2-(((2-methyl-2-propylthio)propionyl)amino)ethyl]-2-amino-thiophenol] | 1.55 % dose | 4.34 | 0.59 % dose | 3.68 | 0.46 % dose | 1.83 | 0.19 % dose | 1.84 | Electrophoresis (charge) [4, 5]: neutral
6 | CCCC[SH]1C(C)(C)C(=O)[N]2CC[N]3c4ccccc4[S][Tc]231=[O] (stereo not shown) [Example T714, ^99m Tc complex of N[2-(((2-methyl-2-butylthio)propionyl)amino)ethyl]-2-amino-thiophenol] | 1.43 % dose | 3.11 | 0.82 % dose | 3.67 | 0.50 % dose | 1.66 | 0.27 % dose | 1.79 | 
7 | CC[SH]1C(C)(C)C(=O)[N]2CC[N]3c4ccccc4[S][Tc]231=[O] (stereo not shown) [Example T715, ^99m Tc complex of N[2-(((2-methyl-2-ethylthio)propionyl)amino)ethyl]-2-amino-thioplhenol] | 2.55 % dose | 5.19 | 0.84 % dose | 3.73 | 0.51 % dose | 1.36 | 0.23 % dose | 1.40 | 
8 | CCC[SH]1c2ccccc2[N]2CC[N]3C(=O)C(C)(C)[S][Tc]321=[O] (stereo not shown) [Example T717, ^99m Tc N[2-(((2-methyl-2-mercapto)propionyl)amino)ethyl]-2-propylthioaniline] | 1.27 % dose | 1.21 | 0.98 % dose | 1.88 | 1.24 % dose | 1.23 | 0.48 % dose | 1.00 | Electrophoresis (charge) [4, 6]: neutral
9 | C=CC[SH]1C(C)(C)C(=O)[N]2CC[N]3c4ccccc4[S][Tc]231=[O] (stereo not shown) [Example T719, ^99m Tc complex of N[2-(((2-methyl-2-allylthio)propionyl)amino)ethyl]-2-(4-methoxybenzylthio)aniline] | 1.86 % dose |  | 0.78 % dose |  | 0.48 % dose |  | 0.40 % dose |  | Brain:blood ([3]; 5 min post injection, 5 min): 1.32; Heart:blood ([3]; 5 min post injection, 5 min): 1.36; Brain:blood ([3]; 30 min post injection, 30 min): 0.26; Heart:blood ([3]; 30 min post injection, 30 min): 0.55
10 | C=CC[SH]1C(C)(C)C(=O)[N]2CC[N]3c4ccccc4[S][Tc]231=[O] (stereo not shown) [Example T721, ^99m Tc complex of N[2-(((-methyl-2-allylthio)propionyl)amino)ethyl]-2-aminothiopenol] | 1.82 % dose |  | 0.75 % dose |  | 0.30 % dose |  | 0.36 % dose |  | Brain:blood ([3]; 5 min post injection, 5 min): 1.23; Heart:blood ([3]; 5 min post injection, 5 min): 1.16; Brain:blood ([3]; 30 min post injection, 30 min): 0.21; Heart:blood ([3]; 30 min post injection, 30 min): 0.49; Electrophoresis (charge) [4, 6]: neutral
11 | C#CC[SH]1C(C)(C)C(=O)[N]2CC[N]3c4ccccc4[S][Tc]231=[O] (stereo not shown) [Example T722, ^99m Tc complex of N[2-(((2-methyl-2-(2-propynylthio))propionyl)amino)ethyl]-2-(4-methoxybenzylthio)aniline] | 1.58 % dose | 0.57 | 0.74 % dose | 0.67 | 0.68 % dose | 0.31 | 0.48 % dose | 0.52 | 
12 | CC1(C)C(=O)[N]2CC[N]3c4ccccc4[S][Tc]23(=[O])[SH]1CCO (stereo not shown) [Example T726, ^99m Tc complex of N[2-(((2-methyl-2-(2-hydroxyethylthio))propionyl)amino)ethyl]-2-(4-methoxybenzylthio) aniline] | 1.11 % dose | 1.82 | 0.73 % dose | 3.22 | 0.32 % dose | 0.93 | 0.28 % dose | 2.08 | Electrophoresis (charge) [4, 6]: neutral
13 | COC(=O)C[SH]1C(C)(C)C(=O)[N]2CC[N]3c4ccccc4[S][Tc]231=[O] (stereo not shown) [Example T727, ^99m Tc complex of N[2-(((2-methyl-2-(methoxycarbonylmethylenethio))propionyl)amino)ethyl]-2-(4-methoxybenzylthio)aniline] | 0.09 % dose | 0.09 | 0.45 % dose | 1.26 | 0.07 % dose | 0.06 | 0.18 % dose | 0.42 | Electrophoresis (charge) ([4]; 0.05M NaH2PO4, pH 4.5, 300 volts, 35 min): neutral
14 | CC1(C)C(=O)[N]2CC[N]3c4ccccc4[S][Tc]23(=[O])[SH]1CCCN (stereo not shown) [Example T728, ^99m Tc complex of N[2-(((2-methyl-2-(3-aminopropylthio))propionyl)amino)ethyl]-2-(4-methoxybenzylthio) aniline] | 0.03 % dose | 0.04 | 1.68 % dose | 4.36 | 0.03 % dose | 0.05 | 0.74 % dose | 2.11 | 
15 | C[SH]1c2ccccc2[N]2CC(=O)[N]3CC(C)(C)[S][Tc]321=[O] (stereo not shown) [Example T729, ^99m Tc complex of N[2-oxo-2(N^1 ((2-methyl-2-mercapto)propyl)amino)ethyl]-2-methylthioaniline] | 0.87 % dose | 0.19 | 0.70 % dose | 0.34 | 0.21 % dose | 0.08 | 0.28 % dose | 0.36 | Electrophoresis (charge) [4, 7]: neutral
16 | CC1(C)C(=O)[N]2CC[N]3c4ccccc4[S][Tc]23(=[O])[SH]1CCCl (stereo not shown) [Example T730, ^99m Tc complex of N[2-(((2-methyl-2-(2-chloroethylthio))propionyl)amino)ethyl]-2-(4-methoxybenzylthio)aniline] | 2.45 % dose | 6.1 | 0.71 % dose | 3.97 | 0.73 % dose | 1.8 | 0.29 % dose | 1.53 | Electrophoresis (charge) [4, 7]: neutral
17 | CC1(C)C(=O)[N]2CC[N]3c4ccccc4[S][Tc]23(=[O])[SH]1CCC#N (stereo not shown) [Example T731, ^99m Tc complex of N[2-(((2-methyl-2-(2-cyanoethylthio))propionyl)amino)ethyl]-2-(4-methoxybenzylthio)aniline] | 1.49 % dose | 0.42 | 1.01 % dose | 0.68 | 0.60 % dose | 0.21 | 0.58 % dose | 0.42 | Electrophoresis (charge) [4, 7]: neutral
18 | CC(C)(S)CNCc1ccccc1NCC(C)(C)S [U-BAT] |  |  |  |  |  |  |  |  | brain uptake / crossing of blood-brain barrier [1]: exhibit brain uptake; retention of brain activity [1]: no retention
